Assay results as given in the NIST ThermoML archive (doi:10.1021/acs.jced.8b00554).

Conditions: Liquid, Vibrating tube method

CCCCCCCCCC [decane]
Conditions	mass density [kg/m3]
313.15 K, 100 kPa	714.75
313.15 K, 1010 kPa	715.53
313.15 K, 2000 kPa	716.4
313.15 K, 3000 kPa	717.27
313.15 K, 4000 kPa	718.14
313.15 K, 5000 kPa	718.99
313.15 K, 6010 kPa	719.78
313.15 K, 7010 kPa	720.66
313.15 K, 7990 kPa	721.48
313.15 K, 9000 kPa	722.28
313.15 K, 10000 kPa	723.08
313.15 K, 11000 kPa	723.91
313.15 K, 12000 kPa	724.66
313.15 K, 13000 kPa	725.42
313.15 K, 14010 kPa	726.18
313.15 K, 15010 kPa	726.93
313.15 K, 16000 kPa	727.61
313.15 K, 17010 kPa	728.38
313.15 K, 18010 kPa	729.1
313.15 K, 19000 kPa	729.81
313.15 K, 20000 kPa	730.51
323.15 K, 100 kPa	706.95
323.15 K, 1000 kPa	707.77
323.15 K, 1990 kPa	708.72
323.15 K, 3000 kPa	709.63
323.15 K, 4000 kPa	710.55
323.15 K, 5010 kPa	711.46
323.15 K, 5990 kPa	712.35
323.15 K, 7000 kPa	713.23
323.15 K, 8010 kPa	714.1
323.15 K, 8990 kPa	714.96
323.15 K, 10010 kPa	715.8
323.15 K, 11000 kPa	716.66
323.15 K, 12010 kPa	717.49
323.15 K, 13010 kPa	718.29
323.15 K, 14000 kPa	719.09
323.15 K, 15010 kPa	719.88
323.15 K, 16010 kPa	720.66
323.15 K, 17010 kPa	721.43
323.15 K, 17990 kPa	722.2
323.15 K, 18990 kPa	722.94
323.15 K, 20010 kPa	723.68
333.15 K, 100 kPa	699.17
333.15 K, 1000 kPa	700.04
333.15 K, 2010 kPa	701.02
333.15 K, 3000 kPa	702.01
333.15 K, 4010 kPa	702.98
333.15 K, 4990 kPa	703.93
333.15 K, 5990 kPa	704.88
333.15 K, 7000 kPa	705.81
333.15 K, 8000 kPa	706.73
333.15 K, 9010 kPa	707.63
333.15 K, 9990 kPa	708.53
333.15 K, 11000 kPa	709.45
333.15 K, 12000 kPa	710.31
333.15 K, 13010 kPa	711.16
333.15 K, 14000 kPa	712.01
333.15 K, 15000 kPa	712.85
333.15 K, 16010 kPa	713.67
333.15 K, 16990 kPa	714.48
333.15 K, 18000 kPa	715.29
333.15 K, 18990 kPa	716.08
333.15 K, 20000 kPa	716.87
343.15 K, 100 kPa	691.44
343.15 K, 1010 kPa	692.33
343.15 K, 2010 kPa	693.38
343.15 K, 2990 kPa	694.42
343.15 K, 4010 kPa	695.45
343.15 K, 4990 kPa	696.46
343.15 K, 6000 kPa	697.46
343.15 K, 7000 kPa	698.44
343.15 K, 8010 kPa	699.41
343.15 K, 8990 kPa	700.37
343.15 K, 10010 kPa	701.31
343.15 K, 11010 kPa	702.25
343.15 K, 12010 kPa	703.17
343.15 K, 13000 kPa	704.08
343.15 K, 14010 kPa	704.97
343.15 K, 15000 kPa	705.86
343.15 K, 16000 kPa	706.73
343.15 K, 17010 kPa	707.59
343.15 K, 18010 kPa	708.44
343.15 K, 18990 kPa	709.28
343.15 K, 19990 kPa	710.1
353.15 K, 100 kPa	683.75
353.15 K, 1010 kPa	684.69
353.15 K, 2000 kPa	685.79
353.15 K, 3010 kPa	686.88
353.15 K, 4010 kPa	687.96
353.15 K, 5010 kPa	689.03
353.15 K, 5990 kPa	690.08
353.15 K, 7000 kPa	691.11
353.15 K, 8000 kPa	692.13
353.15 K, 9000 kPa	693.13
353.15 K, 10000 kPa	694.12
353.15 K, 11010 kPa	695.12
353.15 K, 12000 kPa	696.08
353.15 K, 13000 kPa	697.04
353.15 K, 13990 kPa	697.98
353.15 K, 15000 kPa	698.91
353.15 K, 16000 kPa	699.82
353.15 K, 16990 kPa	700.72
353.15 K, 18010 kPa	701.62
353.15 K, 19000 kPa	702.5
353.15 K, 20000 kPa	703.37
363.15 K, 100 kPa	676.12
363.15 K, 990 kPa	677.1
363.15 K, 2010 kPa	678.26
363.15 K, 3000 kPa	679.41
363.15 K, 3990 kPa	680.54
363.15 K, 5010 kPa	681.66
363.15 K, 5990 kPa	682.76
363.15 K, 7000 kPa	683.84
363.15 K, 8010 kPa	684.91
363.15 K, 9010 kPa	685.97
363.15 K, 10010 kPa	687
363.15 K, 11000 kPa	688.04
363.15 K, 12010 kPa	689.05
363.15 K, 13010 kPa	690.06
363.15 K, 14000 kPa	691.04
363.15 K, 15010 kPa	692.02
363.15 K, 15990 kPa	692.98
363.15 K, 17000 kPa	693.93
363.15 K, 17990 kPa	694.86
363.15 K, 19000 kPa	695.79
363.15 K, 20000 kPa	696.7
